From PubChem BioAssay AID1549 (Sanford-Burnham Center for Chemical Genomics, 2009)
The source made the active and inactive calls. The rule behind the calls is not given here.

Molecular target: Influenza A virus M2 proton channel (A/TW/4845/1999 H1N1)
Experiment: NMR binding screen, influenza A virus M2 proton channel, Kd (AID 1549)
Conditions: M2 protein

Row | Structure (SMILES) | Kd
1 | CCCCCC(=O)Cc1cc(O)cc(O)c1C(=O)Oc1cc(CC(=O)CCCCC)c(C(=O)O)c(OC)c1 | > 4 mM (inactive)
2 | Cc1ccc(-c2cc(C(=O)N3CCCC3)no2)cc1 | > 4 mM (inactive)
3 | O=C(O)CCC(=O)Nc1nccs1 | > 4 mM (inactive)
4 | S=c1ccc(N2CCCCC2)n[nH]1 | > 4 mM (inactive)
5 | O=C(NC(=S)NCCO)c1ccccc1 | > 4 mM (inactive)
6 | NC(N)=NOCC[C@H](N)C(=O)O | > 4 mM (inactive)
7 | S=C(c1ccc2c(c1)OCO2)N1CCCC1 | > 4 mM (inactive)
8 | CS/C(N)=C\C(C)=O | > 4 mM (inactive)
9 | O=[N+]([O-])c1c[n+]([O-])n(-c2ccccc2)n1 | > 4 mM (inactive)
10 | COc1ccc(C(C)=O)c(OC)c1 | > 4 mM (inactive)
11 | CCOC(=O)c1snnc1-c1ccccc1 | > 4 mM (inactive)
12 | Cc1ccc(SCc2cc(=O)n3[nH]c(C)nc3n2)cc1 | > 4 mM (inactive)
13 | COc1c(O)cc2oc3cc(O)c(CC=C(C)C)c(O)c3c(=O)c2c1CC=C(C)C | > 4 mM (inactive)
14 | Cc1[nH]c2ccccc2c1Cc1n[nH]c(=S)n1C | > 4 mM (inactive)
15 | C(=N\c1nccs1)/c1cccnc1 | > 4 mM (inactive)
16 | CC(C)(C)P(=O)(O)c1ccccc1 | > 4 mM (inactive)
17 | CCOCC(=O)NCc1n[nH]c(=O)c2ccccc12 | > 4 mM (inactive)
18 | CC(=O)O[C@H]1C[C@@H](OC(C)=O)C(C)(C)C2C[C@@H](O)[C@]3(C)C(CC[C@@]4(C)[C@H](c5ccoc5)OC(=O)[C@H]5O[C@]543)[C@]21C (some centres undefined) | > 4 mM (inactive)
19 | Cc1cc(C)nc(N2CC(=O)N(C)C2=N)n1 | > 4 mM (inactive)
20 | Cc1ccc(CN2CCN(C(=O)C3CCC3)CC2)cc1 | > 4 mM (inactive)

Row | Structure (SMILES) | Kd
21 | c1cnc(N2CCSCC2)nc1 | > 4 mM (inactive)
22 | CC(=O)Nc1nc(C)nc(-c2ccccc2)c1C(C)=O | > 4 mM (inactive)
23 | O=C1CCC(=O)N1c1cccc([N+](=O)[O-])c1 | > 4 mM (inactive)
24 | O[C@H]1C=C2CCN3Cc4cc5c(cc4C(C23)[C@@H]1O)OCO5 (some centres undefined) | > 4 mM (inactive)
25 | Nc1nc2ccc(S(N)(=O)=O)cc2s1 | > 4 mM (inactive)
26 | CCOC(=O)c1csc(N)n1 | > 4 mM (inactive)
27 | NC(=O)CSc1nc2ncnc(N)c2[nH]1 | > 4 mM (inactive)
28 | Oc1ccc(-c2n[nH]c(=S)n2Cc2ccco2)cc1 | > 4 mM (inactive)
29 | CC(=O)O[C@H]1C[C@@H](OC(C)=O)C(C)(C)C2C[C@@H](OC(C)=O)[C@@]3(C)C4=CC(=O)O[C@@H](c5ccoc5)[C@]4(C)CCC3[C@]21C (some centres undefined) | > 4 mM (inactive)
30 | CCOC(=O)CC1Sc2ccccc2NC1=O (centres undefined) | > 4 mM (inactive)
31 | O=c1[nH]nc(Cc2ccncc2)c2ccccc12 | > 4 mM (inactive)
32 | O=C1c2cccnc2C(=O)N1Cc1ccc2c(c1)OCO2 | > 4 mM (inactive)
33 | CC1(c2ccncc2)NC(=O)NC1=O (centres undefined) | > 4 mM (inactive)
34 | COc1ccc(-c2cc(=O)c3c(OC)c(OC)c(OC)c(OC)c3o2)cc1OC | > 4 mM (inactive)
35 | C=C[C@@](C)(O)CCC1C(=C)CCC2[C@@](C)(CO)CCC[C@]12C (some centres undefined) | > 4 mM (inactive)
36 | CN(C)C(=S)Nc1ccccc1N1CCOCC1 | > 4 mM (inactive)
37 | Cc1ccccc1NC(=S)NCCO | > 4 mM (inactive)
38 | COc1ccc2c(c1)OC[C@@H](Cc1ccc(OC)c(OC)c1)[C@@H]2O | > 4 mM (inactive)
39 | CC1(C)NCCN2C(=O)CSC21 (centres undefined) | > 4 mM (inactive)
40 | NCc1ccc2c(c1)CCO2 | > 4 mM (inactive)

Row | Structure (SMILES) | Kd
41 | CCOC(=O)c1c(C)[nH]c2ccc(O)cc12 | > 4 mM (inactive)
42 | CC12CN3CC(C)(CN(C1)C3c1cccs1)C2O (centres undefined) | > 4 mM (inactive)
43 | O=C(NCc1ccco1)c1cccc(F)c1 | > 4 mM (inactive)
44 | CC(=O)N1CN(C(C)=O)CN(C(C)=O)C1 | > 4 mM (inactive)
45 | O=C(Nc1ccncc1)c1c(F)cccc1F | > 4 mM (inactive)
46 | C=C1CSc2nc(=O)c3c(C)c(C)sc3n21 | > 4 mM (inactive)
47 | Cc1ccc2cc(CO)ccc2n1 | > 4 mM (inactive)
48 | CCOC(=O)c1c(C)cc(O)cc1O | > 4 mM (inactive)
49 | CC1=C2C(O)C(=O)OC3CC4C(C)(C)C(=O)C=C[C@]4(C)C(CC1)[C@]23C (some centres undefined) | > 4 mM (inactive)
50 | Cc1cc(C(=O)Nn2cnnc2)cs1 | > 4 mM (inactive)
51 | CC(=O)c1ccc[nH]1 | > 4 mM (inactive)
52 | O=c1ccc2ccccc2o1 | > 4 mM (inactive)
53 | O=C1COc2ccccc2C(=O)N1 | > 4 mM (inactive)
54 | C[C@@H]1OC(O[C@H]2[C@H](OC(=O)[C@]34CCC(C)(C)CC3C3=CCC5[C@@]6(C)CC[C@H](OC7O[C@@H](C)[C@H](O[C@@H]8OC[C@@H](O)[C@H](O)[C@H]8O)[C@@H](O)[C@H]7O)C(C)(C)C6CC[C@@]5(C)[C@]3(C)CC4O)OC[C@H](O)[C@H]2O)[C@H](O)[C@H](O)[C@H]1O[C@@H]1O[C@H](CO)[C@@H](O)[C@H](O)[C@H]1O (some centres undefined) | > 4 mM (inactive)
55 | O=c1/c(=C\c2cccnc2)sc2nc3ccccc3n12 | > 4 mM (inactive)
56 | NC(=O)c1cn(-c2ccccc2)nc1-c1cccnc1 | > 4 mM (inactive)
57 | CC(CC(=O)NN)C1(O)CCCCC1 (centres undefined) | > 4 mM (inactive)
58 | Cc1ccc2cc(N)ccc2n1 | > 4 mM (inactive)
59 | C=C1C2CC[C@@]3(C)[C@H](c4ccoc4)OC(=O)C[C@]13O[C@H]1CC(=O)C(C)(C)C(CC(=O)OC)C21C (some centres undefined) | > 4 mM (inactive)
